For experiment [1], the system named is isolated spinal cord (monosynaptic stretch reflex). Description: Spinal reflex amplitudes (SRAs) in the isolated spinal cord. Also on record: species or system mice. As to the method: Animals will be anesthetized with ketamine/xylazine and decapitated, and the spinal cord carefully dissected out of the body cavity and placed in a Sylgard-lined (Dow Corning, Midland MI) Petri dish in cooled (<4° C.) artificial cerebrospinal fluid (ACSF) containing (in mM); 125 NaCl, 2.5 KCl, 2 CaCl2, 1 MgCl2, 25 glucose, 1.25 NaH2PO4, and 26 NaHCO3 at a pH of 7.4, oxygenated with 95% O2-5% CO2. After opening and removing the dura mater, to facilitate the access of ACSF to the cord, dorsal and ventral roots will be identified and pinned out with small insect pins. Preparations will either be left intact (in animals less than 7 days old) or hemisected mid-sagittally (>1 week old animals). The hemisection in the older animals helps better oxygenate the tissue and extends the life expectancy of the isolated preparation. Under these conditions, we can hold the spinal cord functionally alive for more than 24 hours, and we have been able test SRAs in individual preparations for up to 48 hours. After a 30-60 min recovery at room temperature, glass suction electrodes will be placed on the distal parts of dorsal and ventral roots of lumbar segments L2-L5. […] For the analyses, reflex responses will be rectified and the calculated integrals of these responses measured and compared between epochs of identical duration before and after drug application. For short-term assessments of drug effects, we will average the last ten consecutive SRAs measured before drug application with the last ten consecutive SRAs after 30 min of application of the drugs per epoch. […]
Statistical Analysis: For the experiments on the isolated spinal cords, we will measure SRAs under control and drug conditions, and data will be averaged and normalized to the mean of the pre-drug values. Statistical significance will be determined with One-Way ANOVA and subsequent post-hoc comparisons or t-tests, as appropriate, and with a set <0.05 (SigmaPlot, Systat, San Jose, CA).

Experiment [2] relates to wild type (WT) animals. The experiment in a line: Thermal pain withdrawal reflex latencies (Hargreaves apparatus). It is filed as in vivo, mice. To be noted: for thermal withdrawal latencies: WT, pramipexole 0.5 mg/kg, SCH 39166 0.1 mg/kg. The procedure: Assessment of baseline pain withdrawal reflex latencies (“thermal pain”): RLS is first and foremost a sensory disorder that is accompanied by a motor component. The clinical sensations (“urge to move”) stem from deep muscle tissues and are considered “painful” by many, if not most patients, unless acted on immediately (moving of the limbs). Pain from deep muscles is carried by both unmyelinated C-fibers (both peptidergic and non-peptidergic) as well as a-∂ fiber. Pain due to thermal stimulus energy is carried specifically by subsets of these nociceptors that express the transient receptor potential-V1 protein (TRPV1). These TRPV1 expressing nociceptors also have extensive cutaneous distribution and are easily activated by a heat source applied to the surface of the skin. Thus the thermal pain stimulus tested in the Hargreaves apparatus (IITC, Inc., Life Science, Model 39D) provides an appropriate surrogate for monitoring changes in deep muscle nociceptor activity that may be present in RLS, and the latencies to withdraw the hindpaw from a noxious thermal stimulus applied to the plantar surface of the hindpaw provide a measure of pain sensitivity. Animals will be removed from their home cages and placed individually in the small Plexiglas containers of the Hargreave's system (4″ width×4″ length×5″ height). The behavior room has optional low light settings to minimize visual perturbations. Each day, animals will be acclimatized on the Hargreaves platform for 1-2 hrs. Subsequently, baseline withdrawal latencies will be determined for each animal, with five independent trials performed per hindpaw per session and a mean latency calculated for each day. The tests will be administered over 4 days.
Drug injection protocol: After establishing baseline parameters, each animal will receive in weeks 1-4 once daily a single-drug i.p. injection of the respective compound: 0.9% NaCl (sham), the D3R agonist (pramipexole) at 0.1 or 0.5 mg/kg, or the D1R antagonist ecopipam ([…]) at 0.1 mg/kg, and tested for thermal pain withdrawal tolerance (details in flow chart, FIG. 5). […] Each cohort will be treated independently of each other, but all animals will receive their respective i.p. injections daily (7 days/week) between 9-11 am in the morning, to avoid possible conflicts with the circadian cycle. Thermal pain withdrawal reflexes will be tested as above on 4 subsequent days per week in the afternoon, starting on the second day of the drug injections. Subgroups a) of each cohort will be euthanized after 1 week, with subgroups b)-d) following suite in 1-week intervals (FIG. 5).
Statistical Analysis: For the behavioral experiments, withdrawal latencies under drug conditions will be averaged and normalized to the mean of the pre-drug values, and statistical significance will be determined with RM ANOVA and subsequent post-hoc comparisons, as appropriate, and with a set <0.05 (SigmaPlot, Systat, San Jose, CA). For the data analysis of the Western blots, we will use One-way ANOVA testing to assess significance, and identify group differences with appropriate post-hoc comparisons (e.g. Holm-Sidak).

[3] abbreviates: short-term bath application (less than 30 min).

“Also recorded” adds a separate entry of the source.

For the molecule `CN1CCc2cc(Cl)c(O)cc2[C@H]2c3ccccc3CC[C@@H]21` [SCH 39166, ecopipam], in experiment [1] (additional bath-application after prolonged pramipexole exposure), the “spinal reflex amplitudes (SRAs)” value is “decreased”. For the same molecule, in experiment [2] (acute treatment), the thermal withdrawal latencies is recorded as 131+/−6.5 % of control. In experiment [2] (acute treatment, result in words), the “acute modulation of thermal withdrawal responses (FIG. 2)” value is listed as “increase withdrawal latencies”. Moreover, the “withdrawal latencies after single injection of D1R antagonist” value in experiment [2] (animals treated for 4 weeks with pramipexole, 1 hour post-injection) is listed as 150.+/−15%; in experiment [2] (non-treated group, week 1, one hour after the injection) it was 151 +/−13%. Further, the “long-term effect on withdrawal latencies” value in experiment [2] (daily for 4 weeks, current data sets, result in words) is on record as “does not have a significant effect”.

As to `Oc1cc2c(cc1O)C(c1ccccc1)CNCC2` (stereo not drawn) [SKF 38393], in experiment [1] (setting [3]), the “spinal reflex amplitudes (SRAs)” value is recorded as “significantly increased them; also recorded: increases SRAs”.

For `CCCN1C[C@H](CSC)C[C@@H]2c3cccc4[nH]cc(c34)C[C@H]21` [pergolide], the “spinal reflex amplitudes (SRAs)” value in experiment [1] (setting [3]) is “significantly decreased SRAs; also recorded: significantly decreases SRAs over control”.

On to `CCCN[C@H]1CCc2nc(N)sc2C1` [pramipexole], for which the thermal withdrawal latencies in experiment [2] (acute treatment) is recorded as 152.9+/−2.8 % of control. The post-injection withdrawal latencies in experiment [2] (after 4 weeks of daily injections with pramipexole, 1 hr post-injection) is 75.2+/−32%. The “post injection withdrawal latencies” value in experiment [2] (week 1, one hour after the first injection, 0.5 mg/kg pramipexole) was 194.65%±27. For the same molecule, the “withdrawal latencies to a thermal stimulus, weekly average” value is recorded as 204.81%±6.3 % of control in experiment [2] (week 1, pramipexole 0.5 mg/kg/day chronic injections); 158+/−12 % of control in experiment [2] (week 2, pramipexole 0.5 mg/kg/day chronic injections); 135+/−6.5 % of control in experiment [2] (week 3, pramipexole 0.5 mg/kg/day chronic injections); 85+/−11 % of control in experiment [2] (week 4, pramipexole 0.5 mg/kg/day chronic injections).

Values taken from patent US12220404B2, “Treatment and management of augmentation in restless legs syndrome” (East Carolina University, priority 2015, dated 2025).
